Reference: US20220265694A1, “COMPOSITIONS AND METHODS FOR TREATING AN INFECTION” (CMPD LICENSING, LLC, priority 2016, published 2022)
Like-named read-outs stand apart in the source and are kept apart here.

Key:
Bacteroides fragilis = assay: Expected efficacy of antibiotic agents; conditions: expected efficacy against Bacteroides fragilis; Gram: anaer
Chlamydia pneumoniae = assay: Expected efficacy of antibiotic agents; conditions: expected efficacy against Chlamydia pneumoniae; Gram: n/a
Chlamydia trachomatis = assay: Expected efficacy of antibiotic agents; conditions: expected efficacy against Chlamydia trachomatis; Gram: n/a
Mycoplasma pneumoniae = assay: Expected efficacy of antibiotic agents; conditions: expected efficacy against Mycoplasma pneumoniae; Gram: n/a
Acinetobacter baumannii = assay: Expected efficacy of antibiotic agents; conditions: expected efficacy against Acinetobacter baumannii; Gram: neg
[1] = test system: Acinetobacter calcoaceticus; assay: Expected efficacy of antibiotic agents; conditions: expected efficacy against Acinetobacter calcoaceticus; Gram: neg
Acinetobacter lwoffii = assay: Expected efficacy of antibiotic agents; conditions: expected efficacy against Acinetobacter lwoffii; Gram: neg
Citrobacter diversus = assay: Expected efficacy of antibiotic agents; conditions: expected efficacy against Citrobacter diversus; Gram: neg
Citrobacter freundii = assay: Expected efficacy of antibiotic agents; conditions: expected efficacy against Citrobacter freundii; Gram: neg
Enterobacter cloacae = assay: Expected efficacy of antibiotic agents; conditions: expected efficacy against Enterobacter cloacae; Gram: neg
Escherichia coli = assay: Expected efficacy of antibiotic agents; conditions: expected efficacy against Escherichia coli; Gram: neg
Haemophilus ducreyi = assay: Expected efficacy of antibiotic agents; conditions: expected efficacy against Haemophilus ducreyi; Gram: neg
Haemophilus influenzae = assay: Expected efficacy of antibiotic agents; conditions: expected efficacy against Haemophilus influenzae; Gram: neg
[2] = test system: Haemophilus parainfluenzae; assay: Expected efficacy of antibiotic agents; conditions: expected efficacy against Haemophilus parainfluenzae; Gram: neg
[3] = test system: Klebsiella (Calymmatobacterium); assay: Expected efficacy of antibiotic agents; conditions: expected efficacy against Klebsiella (Calymmatobacterium); Gram: neg
Klebsiella oxytoca = assay: Expected efficacy of antibiotic agents; conditions: expected efficacy against Klebsiella oxytoca; Gram: neg
Klebsiella pneumoniae = assay: Expected efficacy of antibiotic agents; conditions: expected efficacy against Klebsiella pneumoniae; Gram: neg
Moraxella catarrhalis = assay: Expected efficacy of antibiotic agents; conditions: expected efficacy against Moraxella catarrhalis; Gram: neg
Neisseria meningitidis = assay: Expected efficacy of antibiotic agents; conditions: expected efficacy against Neisseria meningitidis; Gram: neg
Proteus vulgaris = assay: Expected efficacy of antibiotic agents; conditions: expected efficacy against Proteus vulgaris; Gram: neg
Providencia rettgeri = assay: Expected efficacy of antibiotic agents; conditions: expected efficacy against Providencia rettgeri; Gram: neg
Providencia stuartii = assay: Expected efficacy of antibiotic agents; conditions: expected efficacy against Providencia stuartii; Gram: neg
Pseudomonas aeruginosa = assay: Expected efficacy of antibiotic agents; conditions: expected efficacy against Pseudomonas aeruginosa; Gram: neg
Salmonella typhi = assay: Expected efficacy of antibiotic agents; conditions: expected efficacy against Salmonella typhi; Gram: neg
Serratia marcescens = assay: Expected efficacy of antibiotic agents; conditions: expected efficacy against Serratia marcescens; Gram: neg
Shigella dysenteriae = assay: Expected efficacy of antibiotic agents; conditions: expected efficacy against Shigella dysenteriae; Gram: neg
Shigella flexneri = assay: Expected efficacy of antibiotic agents; conditions: expected efficacy against Shigella flexneri; Gram: neg
Vibrio cholerae = assay: Expected efficacy of antibiotic agents; conditions: expected efficacy against Vibrio cholerae; Gram: neg
Corynebacterium jeikeium = assay: Expected efficacy of antibiotic agents; conditions: expected efficacy against Corynebacterium jeikeium; Gram: pos
[4] = test system: Corynebacterium urealyticum; assay: Expected efficacy of antibiotic agents; conditions: expected efficacy against Corynebacterium urealyticum; Gram: pos
Diphtheroids = assay: Expected efficacy of antibiotic agents; conditions: expected efficacy against Diphtheroids; Gram: pos
Enterococcus faecalis = assay: Expected efficacy of antibiotic agents; conditions: expected efficacy against Enterococcus faecalis; Gram: pos
Enterococcus faecium = assay: Expected efficacy of antibiotic agents; conditions: expected efficacy against Enterococcus faecium; Gram: pos
[5] = test system: Staphylococcus aureus (MSSA); assay: Expected efficacy of antibiotic agents; conditions: expected efficacy against Staphylococcus aureus (MSSA); Gram: pos
[6] = test system: Staphylococcus epidermidis; assay: Expected efficacy of antibiotic agents; conditions: expected efficacy against Staphylococcus epidermidis; Gram: pos
Streptococcus agalactiae = assay: Expected efficacy of antibiotic agents; conditions: expected efficacy against Streptococcus agalactiae; Gram: pos
Streptococcus pneumoniae = assay: Expected efficacy of antibiotic agents; conditions: expected efficacy against Streptococcus pneumoniae; Gram: pos
Streptococcus pyogenes = assay: Expected efficacy of antibiotic agents; conditions: expected efficacy against Streptococcus pyogenes; Gram: pos
[7] = test system: Viridans group streptococci; assay: Expected efficacy of antibiotic agents; conditions: expected efficacy against Viridans group streptococci; Gram: pos

CO/N=C(\C(=O)N[C@@H]1C(=O)N2C(C(=O)O)=C(CSc3nc(=O)c(=O)[nH]n3C)CS[C@H]12)c1csc(N)n1 [Ceftriaxone]
Efficacy (Bacteroides fragilis): yes
Efficacy (Clostridium perfringens; expected efficacy against Clostridium perfringens, Gram: anaer): yes
Efficacy (Chlamydia pneumoniae): no
Efficacy (Chlamydia trachomatis): no
Efficacy (Mycoplasma pneumoniae): no
Efficacy (Acinetobacter baumannii): no
Efficacy [1]: no
Efficacy (Acinetobacter lwoffii): no
Efficacy (Citrobacter diversus): yes
Efficacy (Citrobacter freundii): yes
Efficacy (Enterobacter cloacae): yes
Efficacy (Escherichia coli): yes
Efficacy (Francisella tularensis; expected efficacy against Francisella tularensis, Gram: neg): no
Efficacy (Haemophilus ducreyi): yes
Efficacy (Haemophilus influenzae): yes
Efficacy [2]: yes
Efficacy [3]: yes
Efficacy (Klebsiella oxytoca): yes
Efficacy (Klebsiella pneumoniae): yes
Efficacy (Legionella pneumophila; expected efficacy against Legionella pneumophila, Gram: neg): no
Efficacy (Moraxella catarrhalis): yes
Efficacy (Neisseria meningitidis): yes
Efficacy (Proteus vulgaris): yes
Efficacy (Providencia rettgeri): yes
Efficacy (Providencia stuartii): yes
Efficacy (Pseudomonas aeruginosa): no
Efficacy (Salmonella typhi): yes
Efficacy (Serratia marcescens): yes
Efficacy (Shigella dysenteriae): yes
Efficacy (Shigella flexneri): yes
Efficacy (Vibrio cholerae): no
Efficacy (Yersinia pestis; expected efficacy against Yersinia pestis, Gram: neg): no
Efficacy (Corynebacterium jeikeium): no
Efficacy [4]: no
Efficacy (Diphtheroids): no
Efficacy (Enterococcus faecalis): no
Efficacy (Enterococcus faecium): no
Efficacy [5]: yes
Efficacy [6]: yes
Efficacy (Streptococcus agalactiae): yes
Efficacy (Streptococcus pneumoniae): yes
Efficacy (Streptococcus pyogenes): yes
Efficacy [7]: yes

CN[C@H](CC(C)C)C(=O)N[C@H]1C(=O)N[C@@H](CC(N)=O)C(=O)N[C@H]2C(=O)N[C@H]3C(=O)N[C@H](C(=O)N[C@H](C(=O)O)c4cc(O)cc(O)c4-c4cc3ccc4O)[C@H](O)c3ccc(c(Cl)c3)Oc3cc2cc(c3O[C@@H]2O[C@H](CO)[C@@H](O)[C@H](O)[C@H]2O[C@H]2C[C@](C)(N)[C@H](O)[C@H](C)O2)Oc2ccc(cc2Cl)[C@H]1O [Vancomycin]
Efficacy (Bacteroides fragilis): no
Efficacy (Clostridium perfringens): no
Efficacy (Chlamydia pneumoniae): no
Efficacy (Chlamydia trachomatis): no
Efficacy (Mycoplasma pneumoniae): no
Efficacy (Acinetobacter baumannii): no
Efficacy [1]: no
Efficacy (Acinetobacter lwoffii): no
Efficacy (Citrobacter diversus): no
Efficacy (Citrobacter freundii): no
Efficacy (Enterobacter cloacae): no
Efficacy (Escherichia coli): no
Efficacy (Francisella tularensis): no
Efficacy (Haemophilus ducreyi): no
Efficacy (Haemophilus influenzae): no
Efficacy [2]: no
Efficacy [3]: no
Efficacy (Klebsiella oxytoca): no
Efficacy (Klebsiella pneumoniae): no
Efficacy (Legionella pneumophila): no
Efficacy (Moraxella catarrhalis): no
Efficacy (Neisseria meningitidis): no
Efficacy (Proteus vulgaris): no
Efficacy (Providencia rettgeri): no
Efficacy (Providencia stuartii): no
Efficacy (Pseudomonas aeruginosa): no
Efficacy (Salmonella typhi): no
Efficacy (Serratia marcescens): no
Efficacy (Shigella dysenteriae): no
Efficacy (Shigella flexneri): no
Efficacy (Vibrio cholerae): no
Efficacy (Yersinia pestis): no
Efficacy (Corynebacterium jeikeium): yes
Efficacy [4]: yes
Efficacy (Diphtheroids): yes
Efficacy (Enterococcus faecalis): yes
Efficacy (Enterococcus faecium): yes, not VRE
Efficacy [5]: yes
Efficacy [6]: yes
Efficacy (Streptococcus agalactiae): yes
Efficacy (Streptococcus pneumoniae): yes
Efficacy (Streptococcus pyogenes): yes
Efficacy [7]: yes
